# Measured values from PubChem BioAssay (NCI).
#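 GI50 marks 50% less growth. TGI: concentration producing complete growth inhibition.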
# Columns and labels:
# Assay in all cases: NCI anticancer screen, dose series, 384-well format
# [1] = system: NCI-H23 lung
# [2] = system: HS 578T breast
# [3] = system: SF-295 CNS
# [4] = system: HT29 colon
# [5] = system: MALME-3M melanoma
# [6] = system: SW-620 colon
# [7] = system: CAKI-1 renal
# [8] = system: SK-OV-3 ovarian
# [9] = system: A549 NSCLC
# [10] = system: HL-60(TB) leukemia
# [11] = system: T-47D breast
# [12] = system: COLO 205 colon
# [13] = system: MOLT-4 leukemia
# [14] = system: HOP-92 NSCLC
# [15] = system: SN12C renal
# [16] = system: HCT-15 colon
# [17] = system: KM12 colon
# [18] = system: SNB-75 CNS
# [19] = system: SF-268 CNS
# [20] = system: SK-MEL-2 melanoma
# [21] = system: M14 melanoma
# [22] = system: ACHN renal
# [23] = system: A498 renal
# [24] = system: SK-MEL-28 melanoma
# [25] = system: MDA-MB-435 melanoma
# [26] = system: 786-0 renal
# [27] = system: IGROV1 ovarian
# [28] = system: MDA-MB-231 breast
structure (smiles),measurement,setting,value
CN[C@@H](C)C(=O)N[C@H](C(=O)N1CCC[C@H]1C(=O)Nc1sc(-c2ncco2)nc1-c1ccccc1)C1CCCCC1,TGI,[1],1.28 µM
same,GI50,[2],0.609 µM
same,TGI,[2],15.4 µM
same,GI50,[3],3.72 µM
same,TGI,[3],14.7 µM
same,GI50,[4],5.63 µM
same,TGI,[4],18.1 µM
same,GI50,[5],0.0256 µM
same,TGI,[5],0.74 µM
same,GI50,[6],3.66 µM
same,TGI,[6],17.9 µM
same,GI50,[7],11.2 µM
same,TGI,[7],23.3 µM
same,GI50,[8],< 0.01 µM
same,TGI,[8],0.064 µM
same,GI50,[9],11.6 µM
same,TGI,[9],> 100 µM
same,GI50,[10],0.0148 µM
same,TGI,[10],0.584 µM
same,GI50,[11],16.7 µM
same,TGI,[11],30.5 µM
same,GI50,[12],2.05 µM
same,TGI,[12],16 µM
same,GI50,[13],4.34 µM
same,TGI,[13],14.9 µM
same,GI50,[14],9.99 µM
same,TGI,[14],21.8 µM
same,GI50,[15],11 µM
same,TGI,[15],23.6 µM
same,GI50,[16],8.22 µM
same,TGI,[16],21.4 µM
same,GI50,[17],1.21 µM
same,TGI,[17],10.5 µM
same,GI50,[18],2.52 µM
same,TGI,[18],11.1 µM
same,GI50,[19],10.4 µM
same,TGI,[19],22.3 µM
same,GI50,[20],< 0.01 µM
same,TGI,[20],1.04 µM
same,GI50,[21],8.12 µM
same,TGI,[21],20.8 µM
same,GI50,[22],4.35 µM
same,TGI,[22],17.2 µM
same,GI50,[23],5.13 µM
same,TGI,[23],17.9 µM
same,GI50,[24],2.64 µM
same,TGI,[24],16.7 µM
same,GI50,[25],1.6 µM
same,TGI,[25],13.5 µM
same,GI50,[26],6.69 µM
same,TGI,[26],19.9 µM
same,GI50,[27],10.5 µM
same,TGI,[27],24.5 µM
same,GI50,[28],0.14 µM
same,TGI,[28],0.909 µM
